According to PMC10914731, “Homo-BacPROTAC-induced degradation of ClpC1 as a strategy against drug-resistant mycobacteria” (Nature Communications, 2024):
Values after ≈ are worked out from the molar mass of the structure shown. Values joined by “and” are separate entries in the source; they are usually repeats but may differ in a detail not shown here. Identical values can stand only once. Like-named read-outs stand apart in the source and are kept apart here. *1 amine or outer side, *2 acyl side, *3 side chain or, on linkers, in order; H or OH if unused. Where a SMILES comes first, the peptide text is derived from it. [ ]: non-standard residue; d: D form. X3 = C#CCOc1ccc([C@@H](OC)[C@H](N[*:1])C(=O)[*:2])cc1; X2 = C#CCn1cc(C[C@@H](C(=O)[*:2])N(C)[*:1])c2ccccc21; NMeTrp(1-Me) = CN[C@@H](Cc1cn(C)c2ccccc12)C(=O)O; X4 = C=CCO[C@H](c1ccccc1)[C@H](N[*:1])C(=O)[*:2]; NMeLeu(5-OH,4R) = CN[C@@H](C[C@@H](C)CO)C(=O)O; Phe(βR-OMe) = CO[C@H](c1ccccc1)[C@H](N)C(=O)O; Trp(1-Me) = Cn1cc(C[C@H](N)C(=O)O)c2ccccc21; NMeL = CN[C@@H](CC(C)C)C(=O)O; Pra = C#CC[C@H](N)C(=O)O

Legend:
[1] = molecular target: ClpC1 NTD protein (M. tuberculosis) (Mycobacterium tuberculosis, UniProt P9WPC9); experiment: biochemical; format: binding
[2] = in vitro; settings: human; for efflux ratio: Caco-2
In short: (§1)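 Values are bidirectional Caco-2 apparent permeabilities, P(A−B) and P(B−A), given in 10^-6 cm s-1. The efflux ratio divides P(B−A) by P(A−B), and intrinsic permeability averages the two directions.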

[3] = system: Caco-2 monolayers; experiment: in vitro; settings: human, Caco-2
In short: as §1

[4] = format: in vitro ADME, Mice; settings: for Microsomal Stability Mice: clearance in microsomes
Description: (§2) The kinetics of compound degradation in liver microsomes is assessed in an assay with 1 µmol/l of compound and 0.5 mg/ml liver microsomes in a medium of 100 mM Tris-HCl pH 7.5, 6.5 mM MgCl2 and 1 mM NADPH at 37 °C. The reaction is stopped at multiple time points by adding acetonitrile. After centrifugation, the compound concentration is measured in the supernatants by high-performance liquid chromatography (HPLC) tandem mass spectrometry (MS/MS). The results are fitted to a first-order decay and the half-lives are converted to clearance (stated as % of the liver blood flow (%Qh)) using the well-stirred liver model.

[5] = format: in vitro ADME, Rat; settings: for Microsomal Stability Rat: clearance in microsomes
Description: as §2

[6] = Microsomal stability, human; format: in vitro ADME; settings: for Microsomal Stability Human: clearance in microsomes
Description: as §2

[7] = Hepatocyte stability, mice; format: in vitro ADME; settings: mouse, pH 7.4
In short: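 Clearance, expressed as % of liver blood flow (% Qh), derived from parent-compound half-life by the well-stirred model, with HPLC-MS/MS quantitation after acetonitrile quench. Test compound at 1 µM final added to mouse hepatocyte suspension in 50% serum after 15–30 min acclimation at 37 °C; six samples over up to 6 h.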

[8] = format: in vitro ADME, Rat; settings: rat, pH 7.4
[9] = format: in vitro ADME, Human; settings: human, pH 7.4
[10] = system: M. tuberculosis H37Rv (ATCC 27294); experiment: microbe, parasite or virus in culture; format: cell-based
[11] = system: Msm 607; experiment: microbe, parasite or virus in culture; format: cell-based
[12] = system: Msm 700084; experiment: microbe, parasite or virus in culture; format: cell-based
[13] = SPR, individual measurements (source data), read-out: KD ClpC1-NTD
[14] = SPR, read-out: ClpC1-NTD KD Mean ± SD
[15] = Caco-2, Caco-2 permeability P (A-B)
[16] = Caco-2, Caco-2 permeability P (B-A)
[17] = Mycobacterium tuberculosis, M. tuberculosis H37Rv strain, read-out: MIC Mtb H37Rv Mean ± SD
[18] = Mycobacterium tuberculosis, Mtb H37Rv (Supplementary Table 2), read-out: MIC Mtb
[19] = Mycobacterium tuberculosis, individual measurements (source data), read-out: Mtb MIC
[20] = Mycobacterium tuberculosis, single determinations, read-out: Mtb MIC
[21] = Mycolicibacterium smegmatis, 607, read-out: MIC Msm 607
[22] = Mycolicibacterium smegmatis, 607, read-out: Msm 607 MIC, single determinations
[23] = Mycolicibacterium smegmatis, 700084, single determinations, read-out: Msm 700084 MIC
[24] = Mycolicibacterium smegmatis, 700084, read-out: MIC Msm 700084
[25] = SPR (Supplementary Table 1), read-out: KD ClpC1-NTD Mean ± SD
[26] = SPR dissociation rate constant, read-out: koff ClpC1-NTD Mean ± SD
[27] = SPR, single independent measurements
[28] = SPR, single independent measurements, read-out: KD ClpC1-NTD
[29] = SPR, single independent measurements, read-out: koff ClpC1-NTD

Chain of ClpC1 NTD protein (M. tuberculosis) (P9WPC9 1-156, looked up, natural form): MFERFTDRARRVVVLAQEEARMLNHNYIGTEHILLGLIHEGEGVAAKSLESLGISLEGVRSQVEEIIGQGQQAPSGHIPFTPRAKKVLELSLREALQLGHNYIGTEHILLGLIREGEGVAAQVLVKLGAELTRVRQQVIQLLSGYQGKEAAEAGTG

Structure (SMILES)	efflux ratio [2]	Papp B→A ([2]; Caco-2, CACO permeability PEBA) [×10⁻⁶ cm/s]	Caco-2 Int. Perm [3]	Microsomal Stability Mouse QH [4]	Microsomal Stability Mice [4] [%Qh]	Microsomal Stability Rat QH [5]	Microsomal Stability Rat [5] [%Qh]	Microsomal Stability Human QH [6]	Microsomal Stability Human [6] [%Qh]	Hepatocyte Mice [7] [%Qh]	Hepatocyte Stability Mouse QH [7] [%]	Hepatocyte Rat [8] [%Qh]	Hepatocyte Stability Rat QH [8] [%]	Hepatocyte Stability Human QH [9] [%]	MIC [10, 18] [µM]	MIC [10, 20] [µM]	MIC [11, 21] [µM]	MIC [11, 22] [µM]	MIC [12, 23] [µM]	MIC [12, 24] [µM]	other results
C#CC[C@@H]1NC(=O)[C@H](CC(C)C)N(C)C(=O)[C@H](C(C)C)NC(=O)[C@H]([C@H](OC)c2ccccc2)NC(=O)[C@H](C)NC(=O)[C@H](C[C@@H](C)CO)N(C)C(=O)[C@H](Cc2cn(C)c3ccccc23)N(C)C1=O [Compound 20] (cyclo(A[Phe(βR-OMe)]V[NMeL][Pra][NMeTrp(1-Me)][NMeLeu(5-OH,4R)]))	11.8	36	15.7	>88.400%	> 88	>87.900%	> 88	>88.400%	> 88	59	58.928	63	63.002	34.158	50 (≈ 46.4 µg/mL)	50 (≈ 46.4 µg/mL)	25 (≈ 23.2 µg/mL)	25 (≈ 23.2 µg/mL)	> 50	> 50	Kd [1, 13]: 14.1 nM and 13.7 nM; Kd [1, 14]: 13.9 ± 0.3 nM; Papp A→B ([2]; Caco-2, CACO permeability PEAB): 2 ×10⁻⁶ cm/s; Papp A→B [2, 15]: 2.8 ×10⁻⁶ cm/s; Papp B→A [2, 16]: 28.5 ×10⁻⁶ cm/s; Influence of N-methylation on permeability [3]: >11.8; Permeability Correlation P (A-B) [3]: > 28; Hepatocyte Human [9]: 34 %Qh; MIC [10, 17]: 50 µM (≈ 46.4 µg/mL); MIC [10, 19]: 50 µM (≈ 46.4 µg/mL); MIC ([10]; individual measurements (source data), read-out: Mtb MIC): 50.000 µM (≈ 46.4 µg/mL)
CO[C@H](c1ccccc1)[C@@H]1NC(=O)[C@H](C)NC(=O)[C@H](C[C@@H](C)CO)N(C)C(=O)[C@H](Cc2cn(C)c3ccccc23)N(C)C(=O)[C@H](CCC(=O)N(C)C)NC(=O)[C@H](CC(C)C)N(C)C(=O)[C@H](C(C)C)NC1=O [SI-76] (cyclo(A[Phe(βR-OMe)]V[NMeL]E(NMe2)[NMeTrp(1-Me)][NMeLeu(5-OH,4R)]))	> 84	10	4.3	>88.400%	> 88	78.000%	78	>88.400%	> 88	23	23.483	52	52.287	19.852	6.3 (≈ 6.23 µg/mL)	6.25 (≈ 6.18 µg/mL)	12.5 (≈ 12.4 µg/mL)	12.5 (≈ 12.4 µg/mL)	25 (≈ 24.7 µg/mL)	25 (≈ 24.7 µg/mL)	Kd [1, 25]: 26 ± 6 nM; koff [1, 26]: 0.06 s⁻¹; koff ClpC1-NTD [1, 27]: 6E-2 6E-2 1/s; Kd [1, 28]: 21.4 nM and 30.5 nM; koff [1, 29]: 0.06 s⁻¹; Papp A→B ([2]; Caco-2, CACO permeability PEAB): < 0.11 ×10⁻⁶ cm/s; Papp A→B [2, 15]: < 0.1 ×10⁻⁶ cm/s
CO[C@H](c1ccccc1)[C@@H]1NC(=O)[C@H](C)NC(=O)[C@H](C[C@@H](C)CO)N(C)C(=O)[C@H](Cc2cn(C)c3ccccc23)NC(=O)[C@H](CCC(=O)N(C)C)NC(=O)[C@H](CC(C)C)N(C)C(=O)[C@H](C(C)C)NC1=O [SI-74] (cyclo(A[Phe(βR-OMe)]V[NMeL]E(NMe2)[Trp(1-Me)][NMeLeu(5-OH,4R)]))	> 6	3.4	1.7	83.700%	84	60.700%	85	85.000%	61	38	37.632	49	48.537	12.386	3.1 (≈ 3.02 µg/mL)	3.12 (≈ 3.04 µg/mL)	0.8 (≈ 0.779 µg/mL)	0.78 (≈ 0.76 µg/mL)	6.25 (≈ 6.09 µg/mL)	9.4 ± 4.4 (≈ 9.16 µg/mL)	Kd [1, 25]: 4 ± 2 nM; Kd [1, 28]: 3.28 nM and 5.58 nM; Papp A→B ([2]; Caco-2, CACO permeability PEAB): < 0.46 ×10⁻⁶ cm/s; Papp A→B [2, 15]: < 0.5 ×10⁻⁶ cm/s; Hepatocyte Human [9]: 12 %Qh; MIC ([12]; single determinations, read-out: Msm 700084 MIC): 12.500 µM (≈ 12.2 µg/mL)
C#CCn1cc(C[C@H]2C(=O)N(C)[C@@H](C[C@@H](C)CO)C(=O)N[C@@H](C)C(=O)N[C@@H]([C@H](OC)c3ccccc3)C(=O)N[C@@H](C(C)C)C(=O)N(C)[C@@H](CC(C)C)C(=O)N[C@@H](C(C)C)C(=O)N2C)c2ccccc21 [Compound 26] (cyclo(A[Phe(βR-OMe)]V[NMeL]V[X2][NMeLeu(5-OH,4R)]))	2.2	49	24.0	>88.400%	> 88	>87.900%	> 88	>88.400%	> 88	67	66.557	68	67.861	43.919	6.3 (≈ 6.02 µg/mL)	6.25 (≈ 5.97 µg/mL)	6.3 (≈ 6.02 µg/mL)	6.25 (≈ 5.97 µg/mL)	12.5 (≈ 11.9 µg/mL)	12.5 (≈ 11.9 µg/mL)	koff [1, 26]: 0.04 s⁻¹; Kd [1, 13]: 17 nM and 12.3 nM; koff ClpC1-NTD [1, 27]: 4E-2 4E-2 1/s; koff [1, 29]: 0.04 s⁻¹; Kd [1, 14]: 15 ± 3 nM; Papp A→B ([2]; Caco-2, CACO permeability PEAB): 25 ×10⁻⁶ cm/s; Influence of N-methylation on permeability [3]: 9.3; Permeability Correlation P (A-B) [3]: 13.6; Permeability Correlation Ratio [3]: 9.3; MIC [10, 17]: 6.3 µM (≈ 6.02 µg/mL); MIC [10, 19]: 6.25 µM (≈ 5.97 µg/mL)
C#CCOc1ccc([C@@H](OC)[C@@H]2NC(=O)[C@H](C)NC(=O)[C@H](C[C@@H](C)CO)N(C)C(=O)[C@H](Cc3cn(C)c4ccccc34)NC(=O)[C@H](C(C)C)NC(=O)[C@H](CC(C)C)N(C)C(=O)[C@H](C(C)C)NC2=O)cc1 [SI-38] (cyclo(A[X3]V[NMeL]V[Trp(1-Me)][NMeLeu(5-OH,4R)]))	–	18	9.1	72.800%	73	58.700%	59	83.600%	84	15	15.001	37	37.130	19.299	1.6 (≈ 1.55 µg/mL)	1.56 (≈ 1.52 µg/mL)	25 (≈ 24.3 µg/mL)	25 (≈ 24.3 µg/mL)	12.5 (≈ 12.1 µg/mL)	12.5 (≈ 12.1 µg/mL)	Kd [1, 25]: 5.6 ± 0.6 nM; koff ClpC1-NTD [1, 27]: 0.04 s⁻¹; Kd [1, 28]: 6 nM and 5.19 nM; koff [1, 29]: 0.06 s⁻¹; Papp A→B [2, 15]: < 0.2 ×10⁻⁶ cm/s; Papp B→A [2, 16]: 18 ×10⁻⁶ cm/s; Hepatocyte Human [9]: 19 %Qh
C=CCO[C@H](c1ccccc1)[C@@H]1NC(=O)[C@H](C)NC(=O)[C@H](C[C@@H](C)CO)N(C)C(=O)[C@H](Cc2cn(C)c3ccccc23)NC(=O)[C@H](C(C)C)NC(=O)[C@H](CC(C)C)N(C)C(=O)[C@H](C(C)C)NC1=O [Compound 14] (cyclo(A[X4]V[NMeL]V[Trp(1-Me)][NMeLeu(5-OH,4R)]))	12.1	30	21.7	>88.4 >88.4%	> 88	84.3% and 84%	84	>88.4 >88.4%	> 88	29	28.905	57	56.626	41.006	3.1 (≈ 2.92 µg/mL)	3.12 (≈ 2.95 µg/mL)	1.6 (≈ 1.51 µg/mL)	1.56 (≈ 1.47 µg/mL)	12.5 (≈ 11.8 µg/mL)	12.5 (≈ 11.8 µg/mL)	Kd [1, 25]: 10 ± 1 nM; Kd [1, 28]: 9.31 nM and 10.7 nM; Hepatocyte Human [9]: 41 %Qh
